Like-named read-outs stand apart in the source and are kept apart here.
Experiments:
Spraque-Dawley rats [1] = test: Prostaglandin E2-induced thermal hypersensitivity, warm-water tail withdrawal, single compound studies; type: in vivo, rat; settings: for % MPE (reversal of PGE2-induced thermal hypersensitivity): given 30 min before PGE2
Method: Ketamine and dizocilpine are high affinity use-dependent NMDA receptor channel blockers, while memantine is a moderate affinity use-dependent NMDA receptor channel blocker. CGS-19755 is a competitive NMDA antagonist and ifenprodil is a […] polyamine antagonist. Test Method 1: Prostaglandin E2-Induced Thermal Hypersensitivity.
(§1) The terminal 10 cm of the tail was placed into a thermos bottle containing water warmed to 38, 42, 46, 50, 54, or 58° C. The latency in seconds for the animal to remove the tail from the water was used as a measure of nociception.
(§2) Following the assessment of baseline thermal sensitivity, thermal hypersensitivity was produced by a 50 μL injection of 0.1 mg prostaglandin E2 (PGE2) into the terminal 1 cm of the tail. Temperature-effect curves were generated before (baseline) and after (15, 30, 60, 90 and 120 min) the PGE2 injection.
Single compound studies. The ability of drugs to reverse PGE2-induced thermal hypersensitivity was assessed using a single dose time-course procedure. Under this procedure, a single dose of the compound to be tested was administered intraperitoneally (IP), orally (PO) or intranasally (IN) 30 min before the injection of PGE2. […] sensitivity was assessed 30 min after PGE2 injection.
(§3) Test Method 1 Data Analysis—The temperature that produced a half-maximal increase in the tail-withdrawal latency (i.e., T10) was calculated from each temperature-effect curve. The T10 was determined by interpolation from a line drawn between the point above and the point below 10 sec on the temperature-effect curve. For these studies, thermal hypersensitivity was defined as a leftward shift in the temperature-effect curve and a decrease in the T10 value. Reversal of thermal hypersensitivity was defined as a return to baseline of the temperature-effect curve and the T10 value and was calculated according to the following equation:
[formula] in which T10^drug+PGE2 is the T10 after a drug in combination with PGE2, T10^PGE2 is the T10 after PGE2 alone, and T10^baseline is the T10 under control conditions. A % MPE value of 100 indicates a complete return to the baseline thermal sensitivity observed without the PGE2 injection. […] Test Method 2: Chronic Constriction Injury

Spraque-Dawley rats [2] = test: Warm-water tail withdrawal combination studies with morphine; type: in vivo, rat; settings: 30 min before testing
Method: as §1
Combination compound studies. […] Compounds were administered IP at the same time 30 min before testing.
as §3, with “equation: […]” for “equation:”

[3] = test system: rats trained to discriminate between saline and PCP; settings: cited from earlier work
Spraque-Dawley rats [4] = type: in vivo, rat
Method: as §1, §2
Compounds were administered IP at the same time as PGE2, which was administered 30 min before testing.
as §3, with “equation: […]” for “equation:”

Spraque-Dawley rats [5] = test: Observable signs of sedation and ataxia
Spraque-Dawley rats [6] = test: Chronic Constriction Injury-induced tactile hypersensitivity (von Frey); type: in vivo, rat; settings: for % Reversal of CCl-induced tactile hypersensitivity: IP, one week after CCl surgery; for reversal of CCl-induced tactile hypersensitivity (in words): up to doses that produced observable signs of sedation and ataxia
Text: Rats were anesthetized with 3.5% halothane in O2 at 1 L/min and maintained with 1.5% halothane in O2 during surgery. A modified chronic sciatic nerve constriction injury (Mosconi & Kruger, 1996; Bennett & Xie, 1988) was produced by a cutaneous incision and a blunt dissection through the biceps femoris to expose the sciatic nerve. A PE 90 Polyethylene tubing (Intramedic, Clay Adams; Becton Dickinson Co.) cuff (2 mm length) was placed around the sciatic nerve at the level of the mid-thigh. The wound was closed in layers using 4-0 silk suture and wound clips. Testing was conducted 6-10 days after surgery.
Animals were placed in elevated wire cages and allowed 45-60 minutes to acclimate to the testing room. Baseline tactile sensitivity was assessed using a series of calibrated von Frey monofilaments (Stoelting; Wood Dale, Ill.) 0-3 days before surgery. Von Frey monofilaments were applied to the mid-plantar hind paw in sequential ascending or descending order, as necessary, to hover as closely as possible to the threshold of responses. The threshold was indicated by the lowest force that evoked a brisk withdrawal response to the stimuli. Thus, a withdrawal response led to the presentation of the next lighter stimulus and the lack of a withdrawal response led to the presentation of the next stronger stimulus. Rats with baseline thresholds <10 g force were excluded from the study. […] Under cumulative dosing conditions, compounds were administered IP every 30 minutes with the cumulative dose increasing in ½ log unit increments. Tactile hypersensitivity was assessed 20-30 minutes following each drug administration.
Test Method 2 Data Analysis—The 50% threshold values (in gm force) estimated by the Dixon non-parametric test (Chaplan et al, 1994) was calculated and fifteen-grams of force was used as the maximal force. Dose-effect curves were generated for each experimental condition for each rat. Individual tactile hypersensitivity threshold values were averaged to provide a mean (±1 SEM). Reversal of tactile hypersensitivity was defined as a return to baseline tactile sensitivity and was calculated according to the following equation:
(§4) [formula] in which 50%^drug+CCl is the 50% value after compound in animals approximately one week after CCl surgery, 50%^CCl is the 50% value approximately one week after CCl surgery alone, and 50%^baseline is the 50% value before CCl surgery. Maximal effect of 100% reversal represents a return to the mean pre-operative threshold value for subjects in that experimental condition. Test Method 3: Scheduled-Controlled Responding.

Spraque-Dawley rats [7] = test: Scheduled-controlled responding (operant responding, food presentation); settings: for Operant responding: response rate as a percent of control: IP; for rates of responding (in words): schedule of food presentation, Compound A IP or PO at doses that reversed hypersensitivity
Text: as §4
Rats were trained under a multiple-cycle procedure during experimental sessions conducted five days each week. Each training cycle consisted of a 1-min pretreatment period followed by a 10-min response period. During the pretreatment period, stimulus lights were not illuminated, and responding had no scheduled consequences. During the response period, the left or right stimulus lights were illuminated (counterbalanced among subjects), the response lever was extended and subjects could respond under a fixed ratio 30 schedule of food presentation. Training sessions consisted of 3 consecutive cycles. Testing sessions were identical to training sessions except that a single dose of drug was administered at the start of the first cycle.
Data analysis. Operant response rates from individual animals were averaged for the three cycles during test sessions and were converted to percent of control response rates using the average rate from the previous training day as the control value (i.e., average of three cycles). Data are presented as the mean (±1 SEM) response rate as a percent of control.

monkeys = settings: cited from earlier work
[8] = test system: cingulate and retrosplenial cortices of mice and rats; settings: cited from earlier work
[9] = IP, CCl-induced tactile hypersensitivity study
[10] = IP, PGE2-induced thermal hypersensitivity study

## CC(C(O)c1ccc(O)cc1)N1CCC(Cc2ccccc2)CC1 (centres unmarked) [ifenfrodil, ifenprodil]
Spraque-Dawley rats [1]; IP, 10 mg/kg
  % MPE (reversal of PGE2-induced thermal hypersensitivity): 1%
Spraque-Dawley rats [1]; IP, 30 mg/kg
  % MPE (reversal of PGE2-induced thermal hypersensitivity): 14%

## CNC1(c2ccccc2Cl)CCCCC1=O (centres unmarked) [ketamine]
Spraque-Dawley rats [2]; 18.0 mg/kg IP
  Change from Baseline (T10): −0.3
Spraque-Dawley rats [1]; IP, 10 mg/kg
  % MPE (reversal of PGE2-induced thermal hypersensitivity): 14%
Spraque-Dawley rats [1]; IP, 18 mg/kg
  % MPE (reversal of PGE2-induced thermal hypersensitivity): 9%
[3]
  substitution for the PCP-like discriminative stimulus effects: substitute for the PCP-like discriminative stimulus effects
Spraque-Dawley rats [4]; 18.0 mg/kg IP with PGE2, PGE2 + vehicle −5.6
  Change from Baseline (T10): −5.5

## CC12CC3CC(C)(C1)CC(N)(C3)C2 [memantine]
Spraque-Dawley rats [5]; [9]
  doses that produced observable signs of sedation and ataxia: < 10 mg/kg
Spraque-Dawley rats [5]; [10]
  doses that produced observable signs of sedation and ataxia: < 10 mg/kg
Spraque-Dawley rats [5]; PO, PGE2-induced thermal hypersensitivity study
  doses that produced observable signs of sedation and ataxia: < 100 mg/kg
Spraque-Dawley rats [1]; IP, 3 mg/kg
  % MPE (reversal of PGE2-induced thermal hypersensitivity): 13%
Spraque-Dawley rats [1]; IP, 10 mg/kg
  % MPE (reversal of PGE2-induced thermal hypersensitivity): 15%
Spraque-Dawley rats [1]; PO, 10 mg/kg
  % MPE (reversal of PGE2-induced thermal hypersensitivity): −1%
Spraque-Dawley rats [1]; PO, 30 mg/kg
  % MPE (reversal of PGE2-induced thermal hypersensitivity): 11%
Spraque-Dawley rats [1]; PO, 100 mg/kg
  % MPE (reversal of PGE2-induced thermal hypersensitivity): 5%
Spraque-Dawley rats [6]; cumulative dose 3 mg/kg
  % Reversal of CCl-induced tactile hypersensitivity: −25%
Spraque-Dawley rats [6]; cumulative dose 10 mg/kg
  % Reversal of CCl-induced tactile hypersensitivity: −45%
Spraque-Dawley rats [6]
  reversal of CCl-induced tactile hypersensitivity (in words): none of the comparative compounds produced any reversal
[3]
  substitution for the PCP-like discriminative stimulus effects: substitute for the PCP-like discriminative stimulus effects
Spraque-Dawley rats [7]; 3 mg/kg
  Operant responding: response rate as a percent of control: 93%
Spraque-Dawley rats [7]; 10 mg/kg
  Operant responding: response rate as a percent of control: 2%
Spraque-Dawley rats [7]
  rates of responding (in words): dose-dependently decreased rates of responding
monkeys
  self-administration: maintains self-administration

## CN1CC[C@]23c4c5ccc(O)c4O[C@H]2[C@@H](O)C=C[C@H]3[C@H]1C5 [Morphine, morphine]
Spraque-Dawley rats [2]; morphine 5.6 mg/kg IP
  Change from Baseline (T10): +2.3
Spraque-Dawley rats [4]; rat, in vivo
  Change from Baseline (T10): +0.3

## C[C@]12N[C@H](Cc3ccccc31)c1ccccc12 [dizocilpine]
Spraque-Dawley rats [5]; [10]
  doses that produced observable signs of sedation and ataxia: < 0.3 mg/kg
Spraque-Dawley rats [1]; IP, 0.3 mg/kg
  % MPE (reversal of PGE2-induced thermal hypersensitivity): 18%
[3]
  substitution for the PCP-like discriminative stimulus effects: substitute for the PCP-like discriminative stimulus effects
Spraque-Dawley rats [7]; 0.1 mg/kg
  Operant responding: response rate as a percent of control: 63%
Spraque-Dawley rats [7]; 0.3 mg/kg
  Operant responding: response rate as a percent of control: 16%
Spraque-Dawley rats [7]
  rates of responding (in words): dose-dependently decreased rates of responding

## O=c1c2c(c1=O)N(Cc1nnn[nH]1)CCCN2 [Compound B, 2-[(1H-Tetrazol-5-yl)methyl]-2,6-diazabicyclo[5.2.0]-non-1-(7)-ene-8,9-dione]
Spraque-Dawley rats [5]; doses used in the CCl-induced tactile hypersensitivity study, IP
  sedation or ataxia: not associated with sedation or ataxia
Spraque-Dawley rats [1]; PO, 3 mg/kg
  % MPE (reversal of PGE2-induced thermal hypersensitivity): 16%
Spraque-Dawley rats [1]; PO, 10 mg/kg
  % MPE (reversal of PGE2-induced thermal hypersensitivity): 92%
Spraque-Dawley rats [1]; PO, 30 mg/kg
  % MPE (reversal of PGE2-induced thermal hypersensitivity): 101%
Spraque-Dawley rats [1]; rat, in vivo
  reversal of PGE2-induced thermal hypersensitivity (in words): full reversal
Spraque-Dawley rats [6]; cumulative dose 1 mg/kg
  % Reversal of CCl-induced tactile hypersensitivity: 13%
Spraque-Dawley rats [6]; cumulative dose 3 mg/kg
  % Reversal of CCl-induced tactile hypersensitivity: 14%
Spraque-Dawley rats [6]; cumulative dose 10 mg/kg, 10 mg/kg
  % Reversal of CCl-induced tactile hypersensitivity: 40%
Spraque-Dawley rats [6]; cumulative dose 30 mg/kg
  % Reversal of CCl-induced tactile hypersensitivity: 12%

## O=C(O)[C@H]1C[C@@H](CP(=O)(O)O)CCN1 (relative stereo) [CGS-19755, cis-4-phosphonomethyl-2-piperidine carboxylic acid]
Spraque-Dawley rats [5]; [9]
  doses that produced observable signs of sedation and ataxia: < 30 mg/kg
Spraque-Dawley rats [1]; IP, 3 mg/kg
  % MPE (reversal of PGE2-induced thermal hypersensitivity): 9%
Spraque-Dawley rats [1]; IP, 10 mg/kg
  % MPE (reversal of PGE2-induced thermal hypersensitivity): 25%
Spraque-Dawley rats [1]; IP, 30 mg/kg
  % MPE (reversal of PGE2-induced thermal hypersensitivity): 9%
Spraque-Dawley rats [6]; cumulative dose 3 mg/kg
  % Reversal of CCl-induced tactile hypersensitivity: −9%
Spraque-Dawley rats [6]; cumulative dose 10 mg/kg
  % Reversal of CCl-induced tactile hypersensitivity: −5%
Spraque-Dawley rats [6]; cumulative dose 30 mg/kg
  % Reversal of CCl-induced tactile hypersensitivity: −17%
Spraque-Dawley rats [6]
  reversal of CCl-induced tactile hypersensitivity (in words): none of the comparative compounds produced any reversal
[8]; cingulate and retrosplenial cortices of mice and rats
  vacuolization (in words): caused vacuolization at behaviorally effective doses
[8]; mice and rats, behaviorly effective doses
  effectiveness/vacuolization ratio: 1

— US7759346B2, “[[2-(amino-3,4-dioxo-1-cyclobuten-1-yl)amino]alkyl]-acid derivatives for the treatment of pain” (priority 2001, dated 2010)
